The target in data set [1] is T1, Maternal embryonic leucine zipper kinase (Homo sapiens, UniProt Q14680). Briefly: Inhibition of recombinant human MELK expressed in Escherichia coli using ZIPtide as substrate measured after 0.5 hrs by ADP-Glo assay.
Target sequence in this assay (Q14680 whole entry): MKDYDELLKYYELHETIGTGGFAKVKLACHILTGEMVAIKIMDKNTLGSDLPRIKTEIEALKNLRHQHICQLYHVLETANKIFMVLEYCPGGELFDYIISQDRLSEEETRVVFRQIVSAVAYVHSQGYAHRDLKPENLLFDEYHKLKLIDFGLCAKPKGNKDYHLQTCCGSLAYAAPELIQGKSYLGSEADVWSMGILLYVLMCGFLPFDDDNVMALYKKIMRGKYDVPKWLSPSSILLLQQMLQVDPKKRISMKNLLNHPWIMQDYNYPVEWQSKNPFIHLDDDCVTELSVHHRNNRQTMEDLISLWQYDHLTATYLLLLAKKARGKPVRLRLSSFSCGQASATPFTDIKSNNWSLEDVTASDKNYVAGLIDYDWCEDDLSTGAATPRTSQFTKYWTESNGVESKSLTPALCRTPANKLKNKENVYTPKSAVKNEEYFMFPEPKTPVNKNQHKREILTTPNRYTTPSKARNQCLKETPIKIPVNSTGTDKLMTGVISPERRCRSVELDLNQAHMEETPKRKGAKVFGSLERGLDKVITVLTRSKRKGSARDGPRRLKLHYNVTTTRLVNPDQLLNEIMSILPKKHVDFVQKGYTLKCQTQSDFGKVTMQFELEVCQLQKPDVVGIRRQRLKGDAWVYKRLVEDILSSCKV
Data set [2] addresses T1, Maternal embryonic leucine zipper kinase. Briefly: Inhibition of recombinant human MELK expressed in Escherichia coli at 5 uM using ZIPtide as substrate measured after 0.5 hrs by ADP-Glo assay relative to control. On the technique in general: ADP-Glo first removes unused ATP, then detects ADP through luciferase.
Target sequence in this assay (Q14680 whole entry, looked up): as the sequence (Q14680 whole entry) above
A short description of data set [3]: Lipophilicity, log P of the compound. Format: physicochemical. The note with it: octanol/water.
A short description of data set [4]: Kinetic solubility of the compound in pH 7.4 phosphate buffer. It counts as physicochemical. The settings on record: read-out: Kinetic_solubility.
Data set [5] in a line: Stability in mouse liver microsomes assessed as parent compound remaining after 1 hr. Format: ADME, Microsome. The settings on record: read-out: Stability. (In general: Liver microsomes are vesicles of endoplasmic reticulum, rich in cytochrome P450 enzymes.)

As usually defined, the IC50 is the concentration needed to halve the response being measured. What is called inhibition is the drop in the measured response relative to a control, in per cent. Usually logP stands for the decadic logarithm of the partition coefficient of the neutral form, usually between octanol and water. Read a low logP as lower lipophilicity.

SMILES strings stand for the structures. Converted amounts (≈) assume the structure as drawn.

Consider `CC(C)Nc1sc(C(=O)c2cccnc2)c(N)c1C#N`, for which, in data set [1], the half-inhibitory concentration (IC50) was > 5000 nM.

As for `CC(C)Nc1sc(C(=O)c2ccc(Cl)s2)cc1C#N`, the IC50 in data set [1] was > 5000 nM. Take `CC(C)Nc1sc(C(=O)c2ccc(Cl)s2)c(N)c1C(N)=O`: the IC50 in data set [1] was determined as 388 nM. Same read-out and setting: under `CC(C)Nc1sc(C(=O)c2cc(Cl)cs2)c(N)c1C#N` stands 575 nM; under `CC(C)Nc1sc(C(=O)c2ccc(Br)s2)c(N)c1C#N`, 122 nM. Still for that read-out and setting: under `N#Cc1c(NCCO)sc(C(=O)c2ccc(Br)s2)c1N` stands 313 nM. On the same count and under the same terms, the value for `N#Cc1ccccc1Nc1sc(C(=O)c2ccc(Br)s2)c(N)c1C#N` was > 5000 nM. With `CC(C)Nc1sc(C(=O)c2ccc(-c3ccncc3)s2)c(N)c1C#N`, the half-inhibitory concentration (IC50) in data set [1] was 269 nM. The same measure, in the same setting: the value for `CCNc1sc(C(=O)c2cccs2)c(N)c1C#N` was 1190 nM; that for `CC(C)Nc1sc(C(=O)c2ccc(I)s2)c(N)c1C#N` was 112 nM. Same read-out and setting: the value for `N#Cc1c(NCc2ccccc2)sc(C(=O)c2ccc(Cl)s2)c1N` was > 5000 nM; that for `C=CCNc1sc(C(=O)C(C)(C)C)c(N)c1C#N` was > 5000 nM; that for `CC(C)Nc1sc(C(=O)c2ccc(-c3ccc(O)cc3)s2)c(N)c1C#N` was 241 nM.

For the compound `C=CCNc1sc(C(=O)c2ccc(Cl)s2)c(N)c1C#N`, the concentration for half-maximal inhibition (IC50) in data set [1] turned out to be 638 nM. In the case of `CC(C)N(C)c1sc(C(=O)c2ccc(Cl)s2)c(N)c1C#N`, in data set [1], the IC50 worked out at 1420 nM. As for `Cc1ccc(C(=O)c2sc(NC(C)C)c(C#N)c2N)cc1`, the inhibition in data set [2] was 49%. Regarding `COc1ccc(C(=O)c2sc(NC(C)C)c(C#N)c2N)cc1OC`, in data set [1], the IC50 came to 1770 nM. Still for that read-out and setting: under `Cc1ccc(C(=O)c2sc3nc(C)ccc3c2N)cc1` stands > 5000 nM; under `CC(C)Nc1sc(C(=O)c2ccco2)c(N)c1C#N`, 1350 nM. Same read-out and setting: under `CC(C)Nc1sc(C(=O)c2cccc(C#N)c2)c(N)c1C#N` stands > 5000 nM. `CC(C)Nc1sc(C(=O)c2cc(Br)cs2)c(N)c1C#N`: in data set [1], the 50% inhibitory concentration (IC50) turned out to be 599 nM. On the same count and under the same terms, the value for `N#Cc1c(Nc2ccccc2F)sc(C(=O)c2ccc(Cl)s2)c1N` was 707 nM. Same read-out and setting: the value for `N#Cc1c(NCC(N)=O)sc(C(=O)c2ccc(Br)s2)c1N` was 540 nM; that for `CC(C)Nc1sc(C(=O)c2ccc(C#N)cc2)c(N)c1C#N` was > 5000 nM; that for `CC(C)Nc1sc(C(=O)c2ccc3c(c2)OCO3)c(N)c1C#N` was 1120 nM.

In the case of `CC(=O)c1sc(NC(C)C)c(C#N)c1N`, the IC50 in data set [1] was > 5000 nM. Consider `CCNc1sc(C(=O)c2ccc(Cl)s2)c(N)c1C#N`, for which the concentration for half-maximal inhibition (IC50) in data set [1] was found to be 222 nM. On the same count and under the same terms, under `COc1ccc(C(=O)c2sc(NC(C)C)c(C#N)c2N)cc1` stands 4130 nM. On the same count and under the same terms, the value for `CC(C)Nc1sc(C(=O)c2ccncc2)c(N)c1C#N` was > 5000 nM.

Take `CC(C)Nc1nc(N)c(C(=O)c2ccc(Cl)s2)s1`: the 50% inhibitory concentration (IC50) in data set [1] is > 5000 nM. In addition, in data set [2], the inhibition stood at 46%.

In the case of `N#Cc1c(NCCCN)sc(C(=O)c2ccc(Br)s2)c1N`, in data set [1], the half-maximal inhibitory concentration (IC50) came out at 141 nM.

Turning to `N#Cc1c(NCCN2CCNCC2)sc(C(=O)c2ccc(Br)s2)c1N`, the IC50 in data set [1] was 98 nM. Also, in data set [3], the logP was 3. Besides, the solubility kinetic in data set [4] was 189 µg/mL (≈ 429 µM). For the same compound, in data set [5], the remaining at 1 h is 81%. `COc1ccc(C(=O)c2sc3nc(C)ccc3c2N)cc1OC`: the IC50 in data set [1] was > 5000 nM.

Regarding `CC(C)Nc1sc(C(=O)c2ccccc2)c(N)c1C#N`, in data set [2], the inhibition amounted to 47%. As for `CC(C)Nc1sc(C(=O)c2ccc(-c3cccc(O)c3)s2)c(N)c1C#N`, the IC50 in data set [1] amounted to 350 nM. On the same count and under the same terms, the value for `CC(C)Nc1sc(C(=O)c2ccn[nH]2)c(N)c1C#N` was 1700 nM; that for `Cc1ccc(C(=O)c2sc(NC(C)C)c(C#N)c2N)s1` was 494 nM.
